≈ marks a conversion by molar mass, not a printed value. Residues, ends and D or L forms follow the SMILES beside them. No end group written: not given here. *: point of attachment. Orn(α-tetramethylguanidino) = CN(C)C(=N[C@@H](CCCN)C(=O)*)N(C)C
Tested on: E. coli, BL21 cells
Assay type: cell-based
Conditions: for MIC, TSB / MIC, LB / MIC, RPMI/Serum: E. coli BL21, broth microdilution, conducted in triplicate; for MIC, TSB: 33% TSB medium; for MIC, LB: LB medium; for MIC, RPMI/Serum: RPMI/Serum medium (RPMI-1640:MHB:FBS = 100:5:20); for MIC values relative to wt Api: E. coli BL21, peptides from depletion selection
Description: The E. coli strain CA244 (lacZ125(Am), e14-, trpA49(Am), relA1, spoT1) was obtained from Escherichia coli Genetic Stock Center. The E. coli BL21(DE3) electrocompetent cells were from Sigma. The following media and components were implemented for bacteria growth: lysogeny broth (LB), minimal M9 medium, Tryptic Soy Broth (TSB), Roswell Park Memorial Institute medium 1640 (RPMI-1640), Mueller Hinton Broth (MHB), Fetal Bovine Serum (FBS). For various experiments E. coli cells were grown either in LB, in 33% TSB ([21]), in M9 medium supplemented with 1% Glycerol, 1 mM MgSO4, 0.1 mM CaCl2 and 10 μg/ml thiamine, or in RPMI/Serum (RPMI-1640:MHB:FBS = 100:5:20) ([23]).
The minimal inhibitory concentration (MIC) test was performed using the broth microdilution method, adapted from the previously described procedure ([28]). The MIC tests were conducted in triplicate either in LB, 33% TSB or RPMI/Serum media.
In order to quantitatively assess the antimicrobial activity of the synthesized peptides identified by both, the negative and positive selection strategies, we determined their minimal inhibitory concentrations (MICs) for the E. coli BL21 cells in three different media: LB, as a standard laboratory medium, 33% TSB, as a medium in which PrAMPs show increased antibacterial properties ([21]), and in the more therapeutically relevant RPMI/serum media ([23]) (Table 1). […] It appears, therefore, that the positive selection strategy is more prone to identifying biologically active peptides in comparison with the negative selection approaches. Furthermore, it became apparent that some multiple substitutions can even improve the antibacterial properties of the Api-like peptides.

Compound: CC[C@H](C)[C@H](NC(=O)[C@H](Cc1ccc(O)cc1)NC(=O)[C@H](CCSC)NC(=O)[C@@H]1CCCN1C(=O)[C@H](CCCNC(=N)N)NC(=O)[C@H](CC(N)=O)NC(=O)[C@H](CC(N)=O)NC(=O)[C@H](CCCN)N=C(N(C)C)N(C)C)C(=O)N[C@@H](C)C(=O)N[C@@H](CCC(N)=O)C(=O)N1CCC[C@H]1C(=O)N[C@@H](CCCNC(=N)N)C(=O)N1CCC[C@H]1C(=O)N[C@@H](Cc1ccc(O)cc1)C(=O)N[C@@H](Cc1c[nH]cn1)C(=O)N1CCC[C@H]1C(=O)N[C@@H](CCCNC(=N)N)C(=O)N[C@@H](CC(C)C)C(=O)O [Peptide M6A9Y14] ({Orn(α-tetramethylguanidino)}-NNRPMYIAQPRPYHPRL-OH; C-terminus assumed)
- MIC, TSB: 16 µM (≈ 37.4 µg/mL)
- MIC, LB: >64 µM
- MIC, RPMI/Serum: 16 µM (≈ 37.4 µg/mL)

Compound: CC[C@H](C)[C@H](NC(=O)CNC(=O)[C@@H](NC(=O)[C@H](CCC(=O)O)NC(=O)[C@H](CCC(N)=O)NC(=O)[C@H](CC(N)=O)NC(=O)[C@H](CC(N)=O)NC(=O)[C@H](CCCN)N=C(N(C)C)N(C)C)C(C)C)C(=O)N[C@@H](CCSC)C(=O)N[C@@H](CCC(N)=O)C(=O)N1CCC[C@H]1C(=O)N[C@@H](CCCNC(=N)N)C(=O)N1CCC[C@H]1C(=O)N1CCC[C@H]1C(=O)N[C@@H](Cc1c[nH]cn1)C(=O)N1CCC[C@H]1C(=O)N[C@@H](CCCNC(=N)N)C(=O)N[C@@H](CC(C)C)C(=O)O [Peptide Q4E5G7M9] ({Orn(α-tetramethylguanidino)}-NNQEVGIMQPRPPHPRL-OH; C-terminus assumed)
- MIC, TSB: >64 µM
- MIC, LB: >64 µM
- MIC, RPMI/Serum: >64 µM

Compound: CC[C@H](C)[C@H](NC(=O)[C@H](Cc1ccc(O)cc1)NC(=O)[C@@H](NC(=O)[C@H](CCCNC(=N)N)NC(=O)[C@H](CCCNC(=N)N)NC(=O)[C@H](CC(N)=O)NC(=O)[C@H](CC(N)=O)NC(=O)[C@H](CCCN)N=C(N(C)C)N(C)C)C(C)C)C(=O)N1CCC[C@H]1C(=O)N[C@@H](CC(N)=O)C(=O)N1CCC[C@H]1C(=O)N[C@@H](CCCNC(=N)N)C(=O)N1CCC[C@H]1C(=O)N1CCC[C@H]1C(=O)N[C@@H](Cc1c[nH]cn1)C(=O)N1CCC[C@H]1C(=O)N[C@@H](CCCNC(=N)N)C(=O)N[C@@H](CC(C)C)C(=O)O [Peptide R5N10] ({Orn(α-tetramethylguanidino)}-NNRRVYIPNPRPPHPRL-OH; C-terminus assumed)
- MIC values relative to wt Api: comparable to those of wt Api
- MIC, TSB: 8 µM (≈ 18.5 µg/mL)
- MIC, LB: 32 µM (≈ 73.9 µg/mL)
- MIC, RPMI/Serum: 1 µM (≈ 2.31 µg/mL)

Compound: CC[C@H](C)[C@H](NC(=O)[C@H](Cc1ccc(O)cc1)NC(=O)[C@@H](NC(=O)[C@H](CCCNC(=N)N)NC(=O)[C@H](CCCNC(=N)N)NC(=O)[C@H](CC(N)=O)NC(=O)[C@H](CC(N)=O)NC(=O)[C@H](CCCN)N=C(N(C)C)N(C)C)C(C)C)C(=O)N1CCC[C@H]1C(=O)N[C@@H](CCC(N)=O)C(=O)N1CCC[C@H]1C(=O)N[C@@H](CCCNC(=N)N)C(=O)N[C@@H](CC(N)=O)C(=O)N1CCC[C@H]1C(=O)N[C@@H](Cc1c[nH]cn1)C(=O)N[C@@H](CC(C)C)C(=O)N[C@@H](CCCNC(=N)N)C(=O)N[C@@H](CC(C)C)C(=O)O [Peptide R5N13L16] ({Orn(α-tetramethylguanidino)}-NNRRVYIPQPRNPHLRL-OH; C-terminus assumed)
- MIC, TSB: >64 µM
- MIC, LB: >64 µM
- MIC, RPMI/Serum: >64 µM

Compound: CC(C)C[C@H](NC(=O)[C@H](CCCNC(=N)N)NC(=O)[C@@H]1CCCN1C(=O)[C@H](Cc1c[nH]c2ccccc12)NC(=O)[C@@H]1CCCN1C(=O)[C@@H]1CCCN1C(=O)[C@H](CCCNC(=N)N)NC(=O)[C@@H]1CCCN1C(=O)[C@H](CCC(N)=O)NC(=O)[C@@H]1CCCN1C(=O)[C@H](CC(=O)O)NC(=O)[C@H](CC(N)=O)NC(=O)[C@@H](NC(=O)[C@H](CCCNC(=N)N)NC(=O)[C@H](CCCNC(=N)N)NC(=O)[C@H](CC(N)=O)NC(=O)[C@H](CC(N)=O)NC(=O)[C@H](CCCN)N=C(N(C)C)N(C)C)[C@@H](C)O)C(=O)O [Peptide R5T6N7D8W15] ({Orn(α-tetramethylguanidino)}-NNRRTNDPQPRPPWPRL-OH; C-terminus assumed)
- MIC, TSB: >64 µM
- MIC, LB: >64 µM
- MIC, RPMI/Serum: >64 µM

Compound: CC[C@H](C)[C@H](NC(=O)[C@H](Cc1ccc(O)cc1)NC(=O)[C@H](CCCNC(=N)N)NC(=O)[C@@H]1CCCN1C(=O)[C@H](CCCNC(=N)N)NC(=O)[C@H](CC(N)=O)NC(=O)[C@H](CC(N)=O)NC(=O)[C@H](CCCN)N=C(N(C)C)N(C)C)C(=O)N1CCC[C@H]1C(=O)N[C@@H](C)C(=O)N1CCC[C@H]1C(=O)N[C@@H](CCCNC(=N)N)C(=O)N1CCC[C@H]1C(=O)N1CCC[C@H]1C(=O)N[C@@H](Cc1c[nH]cn1)C(=O)N1CCC[C@H]1C(=O)N[C@@H](CCCNC(=N)N)C(=O)N[C@@H](CC(C)C)C(=O)O [Peptide R6A10] ({Orn(α-tetramethylguanidino)}-NNRPRYIPAPRPPHPRL-OH; C-terminus assumed)
- MIC values relative to wt Api: comparable to those of wt Api
- MIC, TSB: 0.5 µM (≈ 1.13 µg/mL)
- MIC, LB: 4 µM (≈ 9.05 µg/mL)
- MIC, RPMI/Serum: 0.0625 µM (≈ 0.141 µg/mL)

Compound: CC[C@H](C)[C@H](NC(=O)[C@H](Cc1ccc(O)cc1)NC(=O)[C@@H](NC(=O)[C@H](Cc1c[nH]c2ccccc12)NC(=O)[C@H](CCCNC(=N)N)NC(=O)[C@H](CC(N)=O)NC(=O)[C@H](CC(N)=O)NC(=O)[C@H](CCCN)N=C(N(C)C)N(C)C)C(C)C)C(=O)N[C@@H](CC(N)=O)C(=O)N[C@H](C(=O)N1CCC[C@H]1C(=O)N[C@@H](CCCNC(=N)N)C(=O)N[C@@H](CO)C(=O)N1CCC[C@H]1C(=O)N[C@@H](Cc1c[nH]cn1)C(=O)N1CCC[C@H]1C(=O)N[C@@H](CCCNC(=N)N)C(=O)N[C@@H](CC(C)C)C(=O)O)[C@@H](C)O [Peptide W5N9T10S13] ({Orn(α-tetramethylguanidino)}-NNRWVYINTPRSPHPRL-OH; C-terminus assumed)
- MIC, TSB: >64 µM
- MIC, LB: >64 µM
- MIC, RPMI/Serum: >64 µM

Compound: GKNRPVYIYQPKPPIPRL [Peptide K2Y9K12I15]
- MIC, TSB: >64 µM
- MIC, LB: >64 µM
- MIC, RPMI/Serum: >64 µM

Compound: GNNRPGYDRQPRPPHPRL [Peptide G6D8R9]
- MIC, TSB: 8 µM
- MIC, LB: 16 µM
- MIC, RPMI/Serum: 4 µM

Compound: GNNRPGYIPPPRPPHPRL [Peptide G6P10]
- MIC, TSB: 0.5 µM
- MIC, LB: 8 µM
- MIC, RPMI/Serum: 4 µM

Compound: GNNRPGYQPKPRPPHPRL [Peptide G6Q8K10]
- MIC, TSB: 0.5 µM
- MIC, LB: 32 µM
- MIC, RPMI/Serum: 16 µM

Compound: GNNRPVCAPQPAWPTGRL [C7A8A12W13T15G16]
- MIC, TSB: >64 µM
- MIC, LB: >64 µM
- MIC, RPMI/Serum: >64 µM

Compound: GNNRPVECPQPRPRVPRL [Peptide E7C8R14V15]
- MIC, TSB: >64 µM
- MIC, LB: >64 µM
- MIC, RPMI/Serum: >64 µM

Compound: GNNRPVYAYQPRPPHPRT [Peptide A8Y9T18]
- MIC, TSB: 4 µM
- MIC, LB: 32 µM
- MIC, RPMI/Serum: 8 µM

Compound: GNNRPVYIPKPPTPHPRL [Peptide K10P12T13]
- MIC, TSB: 1 µM
- MIC, LB: 64 µM
- MIC, RPMI/Serum: 8 µM

Compound: GNNRPVYIPKPRPPYPRK [Peptide K10Y15K18]
- MIC, TSB: 2 µM
- MIC, LB: 8 µM
- MIC, RPMI/Serum: 2 µM

Compound: GNNRPVYIPQPRPPHPRL [Api Ib, Apidaecin 1b, reference compound]
- MIC, TSB: 0.5 µM
- MIC, LB: 16 µM
- MIC, RPMI/Serum: 4 µM

Compound: GNRRPMYIPRPRPPHPRE [Peptide R3M6R10E18]
- MIC, TSB: 8 µM
- MIC, LB: >64 µM
- MIC, RPMI/Serum: 16 µM

Compound: GNRRPVYIPVPRPPYPRL [Peptide R3V10Y15]
- MIC, TSB: 2 µM
- MIC, LB: 8 µM
- MIC, RPMI/Serum: 2 µM

Compound: GRNRPVYIPKPRPPHPRL [Peptide R2K10]
- MIC, TSB: 0.25 µM
- MIC, LB: 2 µM
- MIC, RPMI/Serum: 0.5 µM

Compound: GYNRPAYIPRPRPPHPRR [Peptide Y2A6R10R18]
- MIC, TSB: 1 µM
- MIC, LB: 4 µM
- MIC, RPMI/Serum: 0.5 µM

Compound: SVMRPVYKPQPRPPHPRL [Peptide S1V2M3K8]
- MIC, TSB: 0.5 µM
- MIC, LB: 16 µM
- MIC, RPMI/Serum: 4 µM

Compound: TNARPVNAPQPRPPHPRL [Peptide T1A3N7A8]
- MIC, TSB: 8 µM
- MIC, LB: 64 µM
- MIC, RPMI/Serum: 16 µM

From paper PMC11347161, “Sequence diversity of apidaecin-like peptides arresting the terminating ribosome” (Nucleic Acids Research, 2024)
